Reference: US12421264B2 (INSTITUT NATIONAL DE LA RECHERCHE SCIENTIFIQUE, priority 2018, dated 2025)

How the values were obtained:
[1] = tested on: N. meninigitidis (LNP24198) expressing luciferase (LuxABCDE); test: N. meningitidis luminescent strain growth assay (16 h); format: cell-based, Neisseria meningitidis
Description: N. meningitidis Luminescent Strain Growth Assay (16 h)
To perform the library screening (FIG. 1) or to compare the activity of the different boron-containing salts (FIG. 3), the amount of light produced after 16 h of growth for N. meningitidis luminescent strain was measured. Contrarily to optical density (OD) readings which can be misleading due to the absorbance of dead cells, this measurement is directly correlated to the number of live cells, as the half-life of the luciferase and its substrate are limited and that the emission of light is therefore not subsisting after the death of the cells. To perform this assay, N. meninigitidis (LNP24198) expressing luciferase (LuxABCDE) was grown overnight under the control of the constitutive promoter porBp in GCB agar media, and a cell-suspension corresponding to an OD600=0.01 was subsequently prepared. In parallel, fresh stock DMSO solutions of the compounds were prepared (100×, with final concentrations being indicated in the different figures) and 1.8 μL of the corresponding solutions were added per well of 96-well plates. In each well, 178.2 μL of bacterial suspension were subsequently added. Bacteria were allowed to grow during 16 h at 37° C. with 5% CO2. The emitted light was measured using a 96-well plate luminometer (PerkinElmer Wallac 1420 Victor^3) and results are expressed in relative light unit (RLU). All these assays were performed at least in triplicates.
To screen molecules for their antibacterial activity, a luminescent system was used, as previously described for other bacteria. A clinical isolate of N. meninigitidis (LNP24198) expressing luciferase (LuxABCDE) under the control of the constitutive promoter porBp was used, as similarly described, located in the intergenic region next to NMB1732. More than 2400 compounds from different origins were screened to identify candidates with the ability to inhibit the growth of N. meningitidis after 16 h at 37° C. […] It is noteworthy that stock solutions for all tested compounds were prepared in DMSO and that the final DMSO concentration of the tested solutions was kept at 1%, a concentration which has proven not to affect the growth of N. meningitidis (FIG. 1A). […] An investigation of the effect of the BPh4^− moiety was then pursued.
To exclude any salt-specific effect, the effect of several BPh4^− and BF4^− salts on the growth of N. meningitidis luminescent strain was tested. The growth of N. meningitidis was measured after a 16 h-exposure to different concentrations of various BPh4^− and BF4^− salts. From this assay, the MIC (minimum inhibitory concentration, the lowest concentration that prevents visible bacterial growth, <800 RLU) was calculated. All BPh4 salts tested (sodium, ammonium and potassium) were all highly toxic for N. meningitidis.
Several borate compounds were prepared and their ability to inhibit N. meningitidis growth was assessed using the luminescent system described at Example 2.

N. meningitidis = test: Bacterial survival assay (3 h), CFU counts; format: cell-based, Neisseria meningitidis
Description: (§1) Bacterial Survival Assay (3 h)
(§2) To measure bacterial survival (FIGS. 2 and 4), different bacteria were exposed to various concentrations of the compounds (as indicated) in their specific growth media (see the culture conditions above) for 3 h at 37° C. To perform this assay, all strains were grown overnight in their corresponding agar media. Cell-suspension corresponding to an OD600=0.05 were subsequently prepared. In parallel, fresh stock DMSO solutions of the compounds were prepared (100×, with final concentrations being indicated in the different figures) and 1.8 μL of the corresponding solutions were added per well of 96-well plates. In each well, 178.2 μL of bacterial suspension were subsequently added. Bacteria were allowed to grow during […] at 37° C. with 5% CO2. After incubation, serial dilutions (until 10^−6) were performed and 50 μL of each diluted solution were spread on agar plates. After an overnight incubation at 37° C. with/without 5% CO2, CFU were enumerated. All these assays were performed at least in triplicates.
(§3) Therefore, the bactericidal activity was assessed for the 4 compounds harboring a BPh4^− identified from the initial screen described above (AnIII-7, AnIII-6, AnII-18, NaBPh4). N. meningitidis was treated with 50 μM of each compound and the % survival cells (compared with DMSO 1% control) was measured using serial dilutions and CFU counts. […] To verify if the bactericidal effect could be observed for the other pathogen of the Neisseria family, a clinical isolate of. N. gonorrhoeae (LNP16626 [3]) was also treated with 50 μM of the same compounds, respectively, using the same assay.
(§4) The MBC (minimum bactericidal concentration that kill >99.999%), the concentration necessary to completely abrogate bacterial survival after a 3 h exposure to NaBPh4, was next assessed.

[2] = tested on: N. gonorrhoeae (LNP16626); test: Bacterial survival assay (3 h), CFU counts; format: cell-based, Neisseria gonorrhoeae
Description: as §1, §2, §3, §4

N. lactamica = test: Bacterial survival assay (3 h), CFU counts; format: cell-based, Neisseria lactamica
Description: as §1, §2
(§5) To verify if the toxicity of BPh4^− is specific to the Neisseria genus, the percentage of survival of several Neisseria species was assessed after treatment with 50 μM of NaBPh4^− for 3 h (FIG. 4A). […]

N. elongata = test: Bacterial survival assay (3 h), CFU counts; format: cell-based, Neisseria elongata
Description: as §1, §2, §5

N. sicca = test: Bacterial survival assay (3 h), CFU counts; format: cell-based, Neisseria sicca; conditions: 50 μM, compared with N. meningitidis and N. gonorrhoeae
Description: as §1, §2, §5

Citrobacter rodentium = test: Bacterial survival assay (3 h), CFU counts; format: cell-based; conditions: 50 μM, compared with N. meningitidis and N. gonorrhoeae
Description: as §1, §2
(§6) To verify if the toxicity of BPh4^− is specific to the Neisseria genus, the percentage of survival of several Neisseria species was assessed after treatment with 50 μM of NaBPh4^− for 3 h (FIG. 4A). […] Other Gram-negative species such as Yersinia enterocolitica and Citrobacter rodentium (order Enterobacterales) or Moraxella catarrhalis (order Pseudomonadeles), but also Gram-positive species such as Staphylococcus aureus and Actinobacteria with M. smegmatis, were also tested.

M. smegmatis = test: Bacterial survival assay (3 h), CFU counts; format: cell-based; conditions: 50 μM, compared with N. meningitidis and N. gonorrhoeae
Description: as §1, §2, §6

Moraxella catarrhalis = test: Bacterial survival assay (3 h), CFU counts; format: cell-based; conditions: 50 μM, compared with N. meningitidis and N. gonorrhoeae
Description: as §1, §2, §6

Staphylococcus aureus = test: Bacterial survival assay (3 h), CFU counts; format: cell-based; conditions: 50 μM, compared with N. meningitidis and N. gonorrhoeae
Description: as §1, §2, §6

Yersinia enterocolitica = test: Bacterial survival assay (3 h), CFU counts; format: cell-based; conditions: 50 μM, compared with N. meningitidis and N. gonorrhoeae
Description: as §1, §2, §6

[3] = tested on: N. meningitidis (strain LNP 24198, luminescent); test: Mice infection with luminescent N. meningitidis; format: in vivo, Balb/c mice; conditions: IV or IP administration 2 h after infection, 24 h and 48 h post-infection, relative to vehicle (DMSO)
Description: (§7) The strain LNP 24198 of Neisseria meningitidis expressing the luxCDABE gene under the control of the porBp promoter was used. Three groups, with five seven-week-old Balb/c mice each, were infected with luminescent Neisseria meningitidis. For this, 200 μL of bacterial cultures at OD600nm of 0.1 (5×10^7 cells/mL) mixed with 150 μL of human transferrin (20 mg/mL) was injected in each mouse. Two hours later, one group was treated with 100 μL of NaBPh4 (20 μM) injected into the tail veins by intravenous injection (IV), and one group was treated with the same dose injected by intraperitoneal injection (IP). The remaining five were treated with 100 μL of DMSO as controls. NaBPh4 was initially prepared at 20 mM in DMSO before being diluted into PBS to reach a final concentration of 20 μM (with 0.1% DMSO). DMSO was diluted in PBS in the same manner to achieve 1:1000. To test a possible toxicity of NaBPh4, one group of 5 non-infected mice was treated with 100 μL of DMSO (IP) and two groups with 100 μL NaBPh4 (IV or IP). Luminescence was then measured, on the front and back of the mice, at different time points (0, 4, 8, 24 and 48 hours post-infection). The light signal was determined for each mouse using the ROI (Region Of Interest) tool of the IVIS Lumina Ill.
(§8) The effect of NaBPh4 administration in a murine model of N. meningitidis infection was assessed.

[4] = Toxicity of NaBPh4 in mice; format: in vivo, Balb/c mice; conditions: mice treated with NaBPh4 (IV or IP)
Description: as §7, §8

[5] = 50 μM, 3 h, compared with N. meningitidis and N. gonorrhoeae

[Na+].c1ccc([B-](c2ccccc2)(c2ccccc2)c2ccccc2)cc1 [Compound 1, Sodium tetraphenylborate]
inhibition of the growth of N. meningitidis (library screening) ([1]; 100 μM, 16 h at 37° C., 1% DMSO): active | MIC ([1]; Neisseria meningitidis, 16 h): 15 µM | survival of N. meningitidis (N. meningitidis; 50 μM, 3 h, CFU counts vs DMSO 1% control): the detection of any live bacteria was not possible | MBC (minimum bactericidal concentration that kill >99.999%) (N. meningitidis; N. meningitidis, 3 h exposure): 18 µM | survival of N. gonorrhoeae ([2]; 50 μM, 3 h, CFU counts): no viable cells were detected | MBC (minimum bactericidal concentration that kill >99.999%) ([2]; N. gonorrhoeae, 3 h exposure): 7.5 µM | survival of N. lactamica (N. lactamica; [5]): not as sensitive | MBC (minimum bactericidal concentration that kill >99.999%) (N. lactamica; N. lactamica, 3 h exposure): higher than 200 μM | survival of N. elongata (N. elongata; [5]): less sensitive | MBC (minimum bactericidal concentration that kill >99.999%) (N. elongata; N. elongata, 3 h exposure): higher than 200 μM | survival of N. sicca (N. sicca): less sensitive | survival of Citrobacter rodentium (Citrobacter rodentium): significantly more resistant | survival of M. smegmatis (M. smegmatis): significantly more resistant | survival of Moraxella catarrhalis (Moraxella catarrhalis): significantly more resistant | survival of Staphylococcus aureus (Staphylococcus aureus): significantly more resistant | survival of Yersinia enterocolitica (Yersinia enterocolitica): significantly more resistant | N. meningitidis bacterial load (luminescence) [3]: significantly reduces | sign of toxicity in mice [4]: No apparent sign of toxicity
